Data: paper PMC1660542, “Structure-based discovery of inhibitors of the YycG histidine kinase: New chemical leads to combat Staphylococcus epidermidis infections” (BMC Microbiology, 2006)
In brackets after ≈: the same amount, converted by molar mass. Read-outs that look alike come from different tables or passages of the source.

Columns and labels:
[1] = Erythrocyte hemolysis assay; format: cell-based, human; details: human, 1 hour, 37°C;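 on hemolysis: compounds tested at their MIC and at 4× MIC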
Method: (§1) Cytotoxicity of the antibacterial compounds on cultured Vero cell was measured by using the Cell Proliferation Kit I (MTT) (Roche, Indianapolis, USA) according to the manufacturer's protocol. Addition of DMSO (1%) in the medium produced a slight cytotoxicity on Vero cell, which could easily be corrected for. Each assay was performed in quadruplicate and repeated three times. The results were converted to percentage of the control (cells only treated with 1% DMSO) and CC50 (concentrations that produce a 50% cytotoxicity effect on Vero cell) was calculated by the Origin v7.0 software (OriginLab, Northampton, USA). Hemolytic activities of the compounds were determined by using healthy human erythrocytes. The erythrocytes were washed three times in sterile saline and resuspended to 5% prior to the assay. […] Cells without compound treatment and cells with 1% Triton-100 treatment were used as 0% and 100% hemolysis controls, respectively. The cell suspensions were incubated for 1 hour at 37°C and centrifuged at 1000×g for 10 min. Volumes of 100 μl supernatants were transferred to another sterile plate and hemoglobin release from the cells was determined at 570 nm. […] The hemolysis assays were repeated twice.

[2] = system: healthy human erythrocytes; assay: Erythrocyte hemolysis assay; format: cell-based;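 on hemolysis: compounds tested at their MIC and at 4× MIC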
Method: as §1

S. epidermidis RP62A [3] = assay: Minimal bactericidal concentration (MBC) assay; format: cell-based; details: Staphylococcus epidermidis; S. epidermidis RP62A; read-out: Minimal bactericidal concentration (MBC)
Method: (§2) MIC assays for the antibacterial activities of the compounds were performed according to the broth micro-dilution (in tubes) method of the Clinical and Laboratory Standards Institute (CLSI) of America. The Minimal Bactericidal Concentration (MBC) was obtained by subculturing 100 μl from each negative (no visible bacterial growth) tube from the MIC assay, onto substance-free Mueller-Hinton agar plates. The plates were incubated at 37°C for 24 hours, and the MBC was defined as the lowest concentration of substance which produced subcultures growing no more than five colonies on each plate.

S. epidermidis ATCC12228 [4] = assay: Minimal bactericidal concentration (MBC) assay; format: cell-based; details: Staphylococcus epidermidis
Method: as §2

SrrB' = assay: Inhibition of SrrB' autophosphorylation (Kinase-Glo); format: biochemical, S. epidermidis; details: compound 50 μM, 4 μg protein, 3 μM ATP
S. pyogenes 144 = assay: MIC assay (broth dilution in tubes, CLSI); format: cell-based, Streptococcus pyogenes; details: for MIC: Streptococcus pyogenes, S. pyogenes 144, read-out: Minimal inhibitory concentration (MIC)
Source text: (§3) Staphylococcus epidermidis ATCC12228 and RP62A strains were purchased from the American Type Culture Collection (ATCC, Manassas, USA). Staphylococcus aureus ATCC29213, Escherichia coli ATCC25922 and Pseudomonas aeruginosa ATCC27853 were kindly provided by Dr. Bijie Hu at Zhongshan Hospital (Shanghai, China). S. epidermidis strains se527, se886, se847, seG203, Streptococcus pyogenes strain 144, and Streptococcus mutans strain 128 were all clinical isolates from Zhongshan Hospital and Huashan Hospital (Shanghai, China). If not stated otherwise, S. epidermidis and S. aureus strains were grown at 37°C in tryptic soy broth (TSB, Oxoid) containing 0.25% glucose, E. coli and P. aeruginosa strains were grown at 37°C in Luria-Bertani (LB, Oxoid).
as §2

S. epidermidis RP62A [5] = assay: MIC assay (broth dilution in tubes, CLSI); format: cell-based; details: Staphylococcus epidermidis, read-out: Minimal inhibitory concentration (MIC)
Source text: as §3, §2

S. epidermidis ATCC12228 [6] = assay: MIC assay (broth dilution in tubes, CLSI); format: cell-based, Staphylococcus epidermidis; details: Staphylococcus epidermidis
Source text: as §3, §2

S. mutans 128 = assay: MIC assay (broth dilution in tubes, CLSI); format: cell-based, Streptococcus mutans; details: for MIC: Streptococcus mutans, S. mutans 128, read-out: Minimal inhibitory concentration (MIC)
Source text: as §3, §2

S. aureus ATCC29213 = assay: MIC assay (broth dilution in tubes, CLSI); format: cell-based, Staphylococcus aureus; details: for MIC: Staphylococcus aureus
Source text: as §3, §2

YycG' protein [7] = target: T1, YycG' protein (Staphylococcus epidermidis, UniProt Q8CU87); assay: Inhibition of YycG' ATPase activity / autophosphorylation (Kinase-Glo Luminescent Kinase Assay); format: biochemical; details: for inhibition at 50 µM: read-out: Inhibition of YycG' phosphorylation (decrease of ATPase activity)
T1 construct: of YycG (370aa to 610aa) was amplified by PCR; His-tag (pET28a) (N); made in house; host or cells: E. coli BL21 (pET28a, pETYycG')
T1 sequence (Q8CU87 370-610): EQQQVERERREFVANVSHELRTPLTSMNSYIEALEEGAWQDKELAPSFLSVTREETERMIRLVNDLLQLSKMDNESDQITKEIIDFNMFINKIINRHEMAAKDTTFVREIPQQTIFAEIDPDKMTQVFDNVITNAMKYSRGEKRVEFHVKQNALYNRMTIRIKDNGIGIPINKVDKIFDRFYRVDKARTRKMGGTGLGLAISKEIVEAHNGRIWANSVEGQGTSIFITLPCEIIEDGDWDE
Method: The inhibitory activities of the compounds for the ATPase activity of the YycG' protein was measured using the Kinase-Glo™ Luminescent Kinase Assay (Promega, Madison, USA). Briefly, 4 μg YycG' protein was pre-incubated with a series of dilution of compounds in the reaction buffer (40 mM Tris [pH 7.5], 20 mM MgCl2, and 0.1 mg/ml BSA), at 25°C for 30 min. Then 3 μM ATP was added for another incubation of 30 min at 25°C, and Kinase-Glo™ Reagent was added to detect the rest amount of ATP, as recorded from luminescence measurements (RLU). In parallel, theYycG' protein with no addition of compounds was used as the control. The rate of inhibiting protein phosphorylation (Rp) by the compounds was calculated from equation 1:
Rp=RLU(YycG^′+compound+ATP+Reagent)−RLU(YycG^′+ATP+Reagent)/RLU(ATP+Reagent)−RLU(YycG^′+ATP+Reagent)×100% (1) MathType@MTEF@5@5@+=feaafiart1ev1aaatCvAUfKttLearuWrP9MDH5MBPbIqV92AaeXatLxBI9gBaebbnrfifHhDYfgasaacH8akY=wiFfYdH8Gipec8Eeeu0xXdbba9frFj0=OqFfea0dXdd9vqai=hGuQ8kuc9pgc9s8qqaq=dirpe0xb9q8qiLsFr0=vr0=vr0dc8meaabaqaciaacaGaaeqabaqabeGadaaakeaacqqGsbGudaWgaaWcbaGaeeiCaahabeaakiabg2da9maalaaabaGaeeOuaiLaeeitaWKaeeyvauLaeiikaGIaeeywaKLaeeyEaKNaee4yamMafe4raCKbauaacqGHRaWkcqqGJbWycqqGVbWBcqqGTbqBcqqGWbaCcqqGVbWBcqqG1bqDcqqGUbGBcqqGKbazcqGHRaWkcqqGbbqqcqqGubavcqqGqbaucqGHRaWkcqqGsbGucqqGLbqzcqqGHbqycqqGNbWzcqqGLbqzcqqGUbGBcqqG0baDcqGGPaqkcqGHsislcqqGsbGucqqGmbatcqqGvbqvcqGGOaakcqqGzbqwcqqG5bqEcqqGJbWycuqGhbWrgaqbaiabgUcaRiabbgeabjabbsfaujabbcfaqjabgUcaRiabbkfasjabbwgaLjabbggaHjabbEgaNjabbwgaLjabb6gaUjabbsha0jabcMcaPaqaaiabbkfasjabbYeamjabbwfavjabcIcaOiabbgeabjabbsfaujabbcfaqjabgUcaRiabbkfasjabbwgaLjabbggaHjabbEgaNjabbwgaLjabb6gaUjabbsha0jabcMcaPiabgkHiTiabbkfasjabbYeamjabbwfavjabcIcaOiabbMfazjabbMha5jabbogaJjqbbEeahzaafaGaey4kaSIaeeyqaeKaeeivaqLaeeiuaaLaey4kaSIaeeOuaiLaeeyzauMaeeyyaeMaee4zaCMaeeyzauMaeeOBa4MaeeiDaqNaeiykaKcaaiabgEna0kabigdaXiabicdaWiabicdaWiabcwcaLiaaxMaacaWLjaWaaeWaaeaacqaIXaqmaiaawIcacaGLPaaaaaa@A46C@
IC50 (the concentration of inhibition of 50% YycG' protein autophosphorylation) was obtained by using the Origin v7.0 software (OriginLab, Northampton, USA).

Vero cell = assay: Cytotoxicity on Vero cell (MTT, Cell Proliferation Kit I); format: cell-based, African Green-monkey; details: highest concentration tested 200 μM
Method: as §1

[8] = as above; format: cell-based, African Green-monkey; details: African green monkey, highest concentration tested 200 μM
Method: as §1

YycG' protein [9] = target: T1, YycG' protein; assay: Compound-YycG' protein binding assay (SPR, Biacore 3000); details: SPR
Source text: The YycG' fragment containing the cytoplasmic signal domains (the HATPase_c and HisKA domain, see Figure 1A) of YycG (370aa to 610aa) was amplified by PCR (with the chromosomal DNA of S. epidermidis ATCC12228 as the template, and (5' […] 3') and (5' […] 3') as the primers. Subsequently, the fragment was digested with BamHI and XholI (TAKARA, Japan) and ligated into the corresponding sites of pET28a (Promega, Madison, USA) to obtain pETYycG'. The expressed YycG' protein was purified with the ProBond™ Purification System (Invitrogen, California, USA), according to the manufacturer's protocol.
The in vitro binding affinities of the inhibitor compounds to the YycG' protein was determined using surface plasmon resonance (SPR) biosensor technology on the dual flow cell Biacore 3000 instrument (Biacore AB, Uppsala, Sweden) with a similar method as described in our previous study. Immobilization of the YycG' protein to the hydrophilic carboxymethylated dextran matrix of the sensor chip CM5 (Biacore) was carried out by the standard primary amine coupling reaction. […] The equilibrium constants (KD) evaluating the protein-ligand binding affinity were determined by the steady state or the kinetic state affinity fitting model encoded in the Biacore analysis software.

[10] = erythrocytes (5% suspension), at 4 × MIC (number in parenthesis)
[11] = erythrocytes (5% suspension), at MIC for S. epidermidis ATCC12228
[12] = S. epidermidis RP62A (biofilm-forming strain)
[13] = ATCC12228, Table 2, as tested on S. epidermidis ATCC 12228, read-out: MICs
[14] = S. epidermidis ATCC12228 (non-biofilm-forming strain), read-out: Minimal inhibitory concentration (MIC)
[15] = S. aureus ATCC29213, read-out: Minimal inhibitory concentration (MIC)
[16] = 4 μg YycG' protein, 3 μM ATP, read-out: IC50 for YycG'
[17] = compound 50 μM, 4 μg protein, 3 μM ATP

SMILES | hemolysis at 1 h [1, 10] [%] | hemolysis at 1 h [1, 11] [%] | MBC (S. epidermidis RP62A [3]) [µM] | MBC (S. epidermidis ATCC12228 [4]) [µM] | Inhibition of SrrB' phosphorylation (SrrB') [%] | Inhibitory effect against Streptococcus pyogenes (S. pyogenes 144) | MIC (S. pyogenes 144) [µM] | MIC (S. epidermidis RP62A [5]; [12]) [µM] | MIC (S. epidermidis ATCC12228 [6]; [13]) [µM] | MIC (S. epidermidis ATCC12228 [6]; [14]) [µM] | MIC (S. mutans 128) [µM] | Inhibitory effect against S. aureus (S. aureus ATCC29213) | MIC (S. aureus ATCC29213; [15]) [µM] | IC50 (YycG' protein [7]; [16]) [µM] | inhibition at 50 µM (YycG' protein [7]; [17]) [%] | other results
CCc1ccccc1N=C1SC(=Cc2ccc(OCC(O)O)c(OC)c2)C(=O)N1c1ccccc1CC [Compound 2] | ~6 | 2.3 | 100 (≈ 51.9 µg/mL) | 100 (≈ 51.9 µg/mL) | 3 | effective | 100 (≈ 51.9 µg/mL) | 25 (≈ 13 µg/mL) | 25 (≈ 13 µg/mL) | 25 (≈ 13 µg/mL) | 100 (≈ 51.9 µg/mL) | effective | 25 (≈ 13 µg/mL) | 29 | 61 | Hemolysis ([2]; at 4 × MIC (number in parenthesis), 1 hour, 37°C): 6.1%; Hemolytic activity ([2]; at the highest concentration (200 μM)): ~ 16 % of the zero control; Inhibitory effect against Streptococcus mutans (S. mutans 128): effective
CC(=O)Nc1ccccc1C(=O)Nc1ccc2cc3ccc(NC(=O)c4ccccc4NC(C)=O)cc3nc2c1 [Compound 3] | 0.5 | < 0.1 | 100 (≈ 53.2 µg/mL) | 50 (≈ 26.6 µg/mL) | 5 | inhibited the growth | 25 (≈ 13.3 µg/mL) | 25 (≈ 13.3 µg/mL) | 12.5 (≈ 6.64 µg/mL) | 12.5 (≈ 6.64 µg/mL) | > 200 | inhibited the growth | 100 (≈ 53.2 µg/mL) | 15 | 70 | CC50 (Vero cell): 152 µM; CC50 ([8]; Vero cells): < 200 µM
CCOc1cccc(N2C(=O)/C(=C\c3ccc(OCc4ccc(F)cc4)c(Br)c3)C(=O)NC2=S)c1 [Compound 6] | – | – | – | – | – | – | – | – | – | – | – | – | – | – | – | hemolysis at 1 h ([1]; at 4 × MIC (number in parenthesis)): 2.3%; hemolysis at 1 h ([1]; at MIC for S. epidermidis ATCC12228): 1.1%; Binding to the YycG' protein (YycG' protein [9]): only bound very poorly; CC50 [8]: > 200 µM; MIC (S. epidermidis RP62A [5]; RP62A): 100 µM (≈ 55.5 µg/mL); MIC (S. epidermidis ATCC12228 [6]; ATCC12228, read-out: MICs): 100 µM (≈ 55.5 µg/mL); MIC (S. epidermidis ATCC12228 [6]; ATCC12228, read-out: Minimal inhibitory concentration (MIC)): 100 µM (≈ 55.5 µg/mL); MIC (S. aureus ATCC29213; ATCC29213, read-out: Minimal inhibitory concentration (MIC)): > 200 µM; IC50 (YycG' protein [7]): > 200 µM; inhibition at 50 µM (YycG' protein [7]): ~7%
